Here are results for 14 molecules from patent US9828369B2, “Isoquinoline derivatives useful as inhibitors of diacylglyceride O-acyltransferase 2” (Merck Sharp & Dohme Corp., priority 2014, dated 2017).

Each structure is given as a SMILES string. Where two headings read alike, the source gives them in different places.

In general, IC50 refers to the concentration that gives 50% inhibition.

This test has as its target hDGAT2 (Homo sapiens (Human), UniProt Q96PD7). The experiment in a line: DGAT2 enzymatic activity assay (triolein formation, LC/MS/MS).
Where [1] appears, read: read-out: IC50 values for inhibition of DGAT2, membrane prep of Sf-9 cells expressing hDGAT2, 25 μM diolein, 10 μM oleoyl-CoA, room temperature, triolein by LC/MS/MS.

Chain of hDGAT2 (Q96PD7 whole entry): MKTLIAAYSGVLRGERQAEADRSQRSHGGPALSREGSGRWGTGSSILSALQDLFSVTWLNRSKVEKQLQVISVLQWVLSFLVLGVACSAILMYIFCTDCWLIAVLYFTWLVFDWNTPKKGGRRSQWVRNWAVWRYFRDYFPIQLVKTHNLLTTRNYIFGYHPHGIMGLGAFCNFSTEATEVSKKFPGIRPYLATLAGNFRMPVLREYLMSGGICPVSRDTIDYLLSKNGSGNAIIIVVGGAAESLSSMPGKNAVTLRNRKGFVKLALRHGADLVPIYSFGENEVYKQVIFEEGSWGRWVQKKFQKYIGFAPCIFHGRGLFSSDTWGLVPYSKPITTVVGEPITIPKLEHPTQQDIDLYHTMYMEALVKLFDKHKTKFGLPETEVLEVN

Turning to `COc1cccc(-c2ccc(CNC(=O)Nc3cccc(-c4ccccc4)c3)c3cnccc23)c1` [Example 157, 1-([1,1′-biphenyl]-3-yl)-3-((5(3-methoxyphenyl)isoquinolin-8-yl)methyl)urea], the IC50 under setting [1] came to 116 nM. Same read-out and setting: the same measure for `COc1cccc(-c2ccc(CNC(=O)c3cc(Br)cnc3C(F)(F)F)c3cnccc23)c1` [Example 121, 5-bromo-N-((5-(3-methoxyphenyl)isoquinolin-8-yl)methyl)-2-(trifluoromethyl)nicotinamide]: 1180 nM; for `COc1cccc(-c2ccc(CNC(=O)c3cncc(-c4ccccc4)c3)c3cnccc23)c1` [Example 129, N-((5-(3-methoxyphenyl)isoquinolin-8-yl)methyl)-5-phenylnicotinamide]: 2990 nM. For the molecule `COC(=O)c1cccc(-c2ccc(CNC(=O)C3CC3c3nc(C)no3)c3cnccc23)c1` (centres unmarked) [Example 4, methyl 3-(8-((2-(3-methyl-1,2,4-oxadiazol-5-yl)cyclopropane-carboxamido)methyl)isoquinolin-5-yl)benzoate], the IC50 under setting [1] was determined as 96.5 nM. Same read-out and setting: the same measure for `COC(=O)c1cccc(-c2ccc(CNC(=O)C3CCN(c4ccc(C(F)(F)F)cc4)CC3)c3cnccc23)c1` [Example 5, methyl 3-(8-((1-(4-(trifluoromethyl)phenyl)piperidine-4-carboxamido)methyl)isoquinolin-5-yl)benzoate]: 100 nM; for `COc1cccc(-c2ccc(CNC(=O)Cc3cccc(C(F)(F)F)c3)c3cnccc23)c1` [Example 48, N-((5-(3-methoxyphenyl)isoquinolin-8-yl)methyl)-2-(3-(trifluoromethyl)phenyl)acetamide]: 291 nM; for `COc1cccc(-c2ccc(CNC(=O)Cc3cc(F)c(F)cc3F)c3cnccc23)c1` [Example 59, N-((5-(3-methoxyphenyl)isoquinolin-8-yl)methyl)-2-(2,4,5-trifluorophenyl)acetamide]: 550 nM. On to `COc1cccc(-c2ccc(CNC(=O)C3CC3c3ccccc3Br)c3cnccc23)c1` (centres unmarked) [Example 101, 2-(2-bromophenyl)-N-((5-(3-methoxyphenyl)isoquinolin-8-yl)methyl)cyclopropanecarboxamide], for which the IC50 under setting [1] was found to be 915 nM.

`COc1cccc(-c2ccc(CNC(=O)Cc3ccc(F)c(F)c3F)c3cnccc23)c1` [Example 58, N-((5-(3-methoxyphenyl)isoquinolin-8-yl)methyl)-2-(2,3,4-trifluorophenyl)acetamide]: the 50% inhibitory concentration (IC50) under setting [1] was determined as 7290 nM. Still for that read-out and setting: the same measure for `COc1cccc(-c2ccc(CNC(=O)Cc3csc(-c4ccc(F)cc4)n3)c3cnccc23)c1` [Example 64, 2-(2-(4-fluorophenyl)thiazol-4-yl)-N-((5-(3-methoxyphenyl)isoquinolin-8-yl)methyl)acetamide]: 609 nM. With `COc1cccc(-c2ccc(CNC(=O)[C@H](C)c3ccc4cc(OC)ccc4c3)c3cnccc23)c1` (racemic) [Example 142, (R/S)-2-(6-methoxynaphthalen-2-yl)-N-((5-(3-methoxyphenyl)isoquinolin-8-yl)methyl)propanamide], the IC50 stood at 118 nM.

Consider `COc1cccc(-c2ccc(CNC(=O)c3cc(C4CC4)on3)c3cnccc23)c1` [Example 26, 5-cyclopropyl-N-((5-(3-methoxyphenyl)isoquinolin-8-yl)methyl)isoxazole-3-carboxamide], for which the IC50 under setting [1] turned out to be 2050 nM. Take `COc1cccc(-c2ccc(CNC(=O)c3cn(Cc4ccccc4)nn3)c3cnccc23)c1` [Example 113, 1-benzyl-N-((5-(3-methoxyphenyl)isoquinolin-8-yl)methyl)-1H-1,2,3-triazole-4-carboxamide]: the 50% inhibitory concentration (IC50) under setting [1] was 5890 nM. On the same count and under the same terms, the same measure for `COC(=O)c1cccc(-c2ccc(CNC(=O)C3CC34CCCC4)c3cnccc23)c1` (centres unmarked) [Example 10, methyl 3-(8-((spiro[2.4]heptane-1-carboxamido)methyl)isoquinolin-5-yl)benzoate]: 162 nM.
